Earlier results on 1 compound are cited in patent publication US20150374878A1, “[…] FOR WOUND CARE” (AKESO BIOMEDICAL, INC., priority 2014, published 2015).

The conditions of this data set: see U.S. Pat. No. 5,858,365 to Faller.

The structures appear in SMILES notation.

As to `CCCC(=O)O` [butyric acid], the half-life in serum result is recorded as “about 2 minutes”.
